From PMC12909347, “Disconnect between in vitro and in vivo efficacy of the MPS1 inhibitor NTRC 0066-0 against glioblastoma” (Cellular Oncology, 2026)

Assays:
[1] = Pharmacokinetics and brain penetration in Abcb1a/b;Abcg2-/- mice; assay type: in vivo; conditions: for Plasma AUC, Abcb1a/b;Abcg2-/- vs WT mice: 10 mg/kg
Description: (§1) The pharmacokinetics of NTRC 0066-0 were analyzed in wild-type (WT), Abcb1a/b^−/−, Abcg2^−/−, Abcb1a/b^−/−;Abcg2^−/− and Abcb1a/b^−/−;Abcg2^−/−;Abcc4^−/− FVB mice. All knockout mice strains have been developed at the Netherlands Cancer Institute. For i.v. administration, NTRC0066-0 was formulated in DMSO: Cremophor EL: saline (1:1:8 v/v) and injected at a dose of 5 mg/kg. For i.p and oral administration, NTRC0066-0 was administered at 5, 10 or 20 mg/kg as indicated. Serial blood sampling was done by tail vein bleeding at specific time points. At terminal time points, blood was drawn by cardiac puncture followed by tissue collection. Plasma was obtained from whole blood by centrifugation (5 min, 5,000 rpm, 4 °C) and tissues were weighed and homogenized using a FastPrep®-24 (MP-Biomedicals, NY) in 1% (w/v) bovine serum albumin (Sigma-Aldrich) in water.
(§2) NTRC 0066-0 was extracted from in vitro and in vivo samples using liquid–liquid extraction with diethyl ether. Another MPS-1 inhibitor, Compound 5 (Cpd-5), was added to the samples as an internal standard. The dried organic phase was reconstituted in 30% methanol in water (v/v). Samples were measured using an LC-MS/MS system comprising an UltiMate 3000 LC Systems (Dionex, Sunnyvale, CA) and an API 4000 mass spectrometer (Sciex, Framingham, MA). Samples were injected on to a Securityguard C18 pre-column (Phenomenex, Utrecht, The Netherlands) connected to a ZORBAX Extend-C18 column (Agilent, Santa Clara, CA). Elution was done at a flow rate of 0.2 mL/min using a 5 min gradient from 20% to 95% B (mobile phase A was 0.1% HCOOH in water (v/v) and mobile phase B was methanol). 95% B was maintained for 3 min followed by re-equilibration at 20% B. Multiple reaction monitoring parameters were 566.2/391.4 (NTRC0066-0) and 581.6/397.0 (internal standard). Analyst® 1.6.2 software (Sciex) was used for system control and data analysis.
PK solver was used to determine pharmacokinetic parameters. The standard error of the oral bioavailability was calculated using the formula below: […]

P-gp = experiment: Brain penetration in Abcb1a/b-/- mice; assay type: in vivo; conditions: 1 h after 5 mg/kg i.v.
Description: as §1, §2

MELpT-KNL1 = MELpT-KNL1 foci in E98 tumors (target inhibition); assay type: in vivo, mice; conditions: last day of 5/10 mg/kg b.i.d.x7d schedule
Description: Mouse heads were fixed in 4% (v/v) formaldehyde and 5% (v/v) glacial acetic acid overnight, and subsequently decalcified in 6.5% (v/v) formic acid at 37 °C for 4 days. Decalcified tissues were paraffin embedded and cut into 4 μm coronal sections that were stained with hematoxylin and eosin (H&E), and for human Vimentin (1:4,000; M0725; DakoCytomation; Glostrup, Denmark), P-gp (1:200; 13978; Cell Signaling Technology; Danvers, MA), BCRP (1:400; ab24115; Abcam; Cambridge, UK), mouse IgG (K4001, Dako) and MELpT-KNL1 (1:50; as described previously). Sections were imaged and processed using an Aperio AT2 system and ImageScope software (v12; both Leica). MELpT-KNL1 foci were imaged using an Axio Observer Z1 system (Carl Zeiss AG; Oberkochen, Germany).

[2] = tested on: orthotopic E98 GBM tumors; experiment: Quantification of mitotic errors in E98 tumors; assay type: in vivo, mice; conditions: end-stage E98 tumors, 5/10 mg/kg b.i.d.x7d
Description: Tumor-bearing mouse brains were formalin-fixed, paraffin-embedded and coronal Sect. (10 μm) were sliced using an RM2255 microtome (Leica, Wetzlar, Germany). Sections were subsequently deparaffinized using xylene, incubated in citrate buffer for antigen retrieval, blocked with 4% (w/v) BSA in TBS-T, incubated with rabbit-α-pH3^Ser10 (1:250 for 3 h at room temperature; Merck Millipore, Burlington, MA), incubated with goat-α-rabbit-AF568 (1:250 for 45 min at room temperature; Thermo Fisher Scientific, Waltham, MA) and mounted with Vectashield hardset antifade mounting medium with DAPI (Vector Laboratories, Burlingame, CA). Mitotic errors were imaged and scored using a Deltavision ultra high resolution microscope (Applied Precision Inc., Issaquah, WA).

[3] = Abcb1a/b;Abcg2-/-, i.p. 10 mg/kg
[4] = Abcb1a/b;Abcg2-/-, p.o. 10 mg/kg

Q: What does the source list for `CCc1cccc(CC)c1NC(=O)c1ccn2c1CCc1cnc(Nc3ccc(N4CCN(C)CC4)cc3OC)nc1-2` [NTRC 0066-0]?
A: Lowest plasma trough concentration ([1]; 5 mg/kg p.o. morning + 10 mg/kg p.o. about 8 h later, 7 days (5/10 mg/kg b.i.d.x7d)): above 20 nM; Brain concentration vs threshold level of in vitro efficacy ([1]; 1, 4, 8 and 24 h after 20 mg/kg p.o.): remained well above the threshold level of in vitro efficacy; Concentration at 24 h, Abcb1a/b;Abcg2-/- vs WT mice ([1]; 24 h after 10 mg/kg): about 5 fold; Plasma concentration ([1]; 24 h after 20 mg/kg p.o.): 6 nM; Brain penetration (brain vs plasma) ([1]; Abcb1a/b;Abcg2-/- mice): 20 fold; Brain-plasma ratio ([1]; Abcb1a/b;Abcg2-/- mice): above 20; Oral bioavailability (relative to i.p.) ([1]; Abcb1a/b;Abcg2-/- mice): about 50%; Brain concentration compared to Abcb1a/b-/- mice ([1]; Abcb1a/b;Abcg2-/- mice, 1 h after 5 mg/kg i.v.): did not display further increased; Brain-to-plasma ratio ([1]; Abcb1a/b;Abcg2-/- mice, 24 h after 10 mg/kg p.o. or i.p.): approximately 20; Cmax [1, 3]: 1700 ± 160 nM; MRT [1, 3]: 4.3 ± 0.4 h; t1/2 [1, 3]: 3.4 ± 0.4 h; tmax [1, 3]: 0.8 ± 0.3 h; Plasma AUCi.p. ([1]; Abcb1a/b;Abcg2-/-, i.p. 10 mg/kg, 0-∞): 11,000 ± 2200 nM.h; Cmax [1, 4]: 550 ± 52 nM; MRT [1, 4]: 5.2 ± 0.5 h; t1/2 [1, 4]: 3.6 ± 0.2 h; tmax [1, 4]: 3.3 ± 1.5 h; F (bioavailability) ([1]; Abcb1a/b;Abcg2-/-, p.o. 10 mg/kg relative to i.p.): 43 ± 11%; Plasma AUCp.o. ([1]; Abcb1a/b;Abcg2-/-, p.o. 10 mg/kg, 0-∞): 4.7 ± 0.71 µM·h; Plasma AUC, Abcb1a/b;Abcg2-/- vs WT mice ([1]; after i.p. dosing): about 4 fold; Plasma AUC, Abcb1a/b;Abcg2-/- vs WT mice ([1]; after oral dosing): ~3 fold; Brain concentration compared to WT mice (P-gp): markedly increased; Brain-plasma ratio compared to WT mice (P-gp): markedly increased; Plasma concentration compared to WT mice (P-gp): similar; Duration of reduction in MELpT-KNL1 foci in pro-/metaphase cells (MELpT-KNL1): at least 24 h; Number of mitotic errors in tumors [2]: did not increase the number of mitotic errors
